Test results: US9198419B2, “Use of pro-fungicides of UK-2A for control of black sigatoka” (Dow AgroSciences LLC, priority 2012, dated 2015)

Test system: Black Sigatoka on Bananas
Assay: Assessment of disease in field plots: Black Sigatoka on banana plants, natural inoculation
Type: in vivo, Mycosphaerella fijiensis
Details: for Disease Severity (AUDPC): 61 Day After Application, Area Under Disease Progression Curve, banana field plots; for Total Number of Functional Leaves: bananas
Experimental: Aliquots of a 10% SC formulation of Compound I were diluted into water and mixed with Spraytex CT mineral oil (7 L/Ha) to achieve active ingredient application rates of 50, 100, 150, 200, 300 & 400 g a.i./Ha. These treatments were delivered to banana plants in field plots at an application volume of 23 L/Ha, using a Solo back-pack pump sprayer fitted with a Micronair AU8000 atomizer. A total of five applications were made at 10 day intervals. Experimental design was based on a randomized complete block, and 4 replications. Disease symptoms resulted from natural inoculation and epidemic development. Total experimental plot size was 96 m^2. Efficacy was determined by both percent visual infection and the number of functional leaves.

In the case of COc1ccnc(C(=O)N[C@H]2COC(=O)[C@H](Cc3ccccc3)[C@@H](OC(=O)C(C)C)[C@H](C)OC2=O)c1OCOC(=O)C(C)C [Compound I], the “Disease Severity (AUDPC)” value (Compound I 50 ppm) is reported as 29, the “Disease Severity (AUDPC)” value (Compound I 100 ppm) is reported as 34 and the “Disease Severity (AUDPC)” value (Compound I 150 ppm) is reported as 29. The “Disease Severity (AUDPC)” value (Compound I 200 ppm) was 28, the “Disease Severity (AUDPC)” value (Compound I 300 ppm) was 35 and the “Total Number of Functional Leaves” value (Rate 50 g ai/ha, Week 10) was 12.8. For the same compound, the “Total Number of Functional Leaves” value (Rate 50 g ai/ha, Week 13) was 13.0, the “Total Number of Functional Leaves” value (Rate 50 g ai/ha, Week 15) was 14.7 and the “Total Number of Functional Leaves” value (Rate 100 g ai/ha, Week 10) was 9.3. The “Total Number of Functional Leaves” value (Rate 100 g ai/ha, Week 13) was 12.7, the “Total Number of Functional Leaves” value (Rate 100 g ai/ha, Week 15) was 14.1 and the “Total Number of Functional Leaves” value (Rate 200 g ai/ha, Week 10) was 8.6. For the same compound, the “Total Number of Functional Leaves” value (Rate 200 g ai/ha, Week 13) was 12.3, the “Total Number of Functional Leaves” value (Rate 200 g ai/ha, Week 15) was 14.0 and the “Total Number of Functional Leaves” value (Rate 400 g ai/ha, Week 10) was 8.7. For the same compound, the “Total Number of Functional Leaves” value (Rate 400 g ai/ha, Week 13) was 12.7 and the “Total Number of Functional Leaves” value (Rate 400 g ai/ha, Week 15) was 14.0.
